The results in this text go back to patent US9861575B2, “Vitamin-containing nutrition infusion for administration through peripheral vein” (AJINOMOTO CO., INC., priority 2010, dated 2018).

Where a name gives a salt, the structure may show the parent alone.

A short description of data set [1]: Test Example 6: stability of respective vitamins on storage of infusion formulation of Example 11. The format is physicochemical. The following applies: in infusion formulation of Example 11, percentage based on the mixed amount; for residual rate (content), storage for 3 months / residual rate (content), storage for 1 month: 40° C. and 75% RH. The source says: In addition, the content is expressed as a percentage based on the mixed amount. From the results, it is considered that the infusion formulation of the present invention remains stable even when stored for a long time.

The nature of data set [2]: Test Example 7: stability of mixed solution of Example 11. The format is physicochemical. To be noted: mixed solution of Example 11, room temperature, light-shielded; value immediately after mixing = 100%. How it is done:
Regarding the infusion formulations prepared in Example 11, the partition portions were opened to thoroughly mix the sugar solution with the amino acid solution at room temperature, and then the mixed solution was sampled after 0 hours, 24 hours, and 48 hours to measure the content of the respective vitamins and N-acetyl cysteine. In addition, the mixed solution was stored in a light-shielded environment. The value measured immediately after mixing was taken as 100%, and the content at each point in time of measurement is expressed as a percentage. All of the respective components remained stable until 48 hours elapsed after mixing.

Turning to `O=C(O)CCCC[C@@H]1SC[C@@H]2NC(=O)N[C@@H]21` [Biotin], in data set [1], the “residual rate (content), storage for 3 months” value (from here on “residual rate … for 3 months”) was 91.4% and the “residual rate (content) immediately after sterilization” value (shortened to “residual rate (content) immediately”) stood at 93.6%. In data set [2], the “content after 24 hours” value came to 97.9% and the “content after 48 hours” value is on record as 96.7%.

On to `Nc1nc2ncc(CNc3ccc(C(=O)N[C@@H](CCC(=O)O)C(=O)O)cc3)nc2c(=O)[nH]1` [Folic acid], for which, in data set [1], the “residual rate (content), storage for 1 month” value (shortened to “residual rate … for 1 month”) is on record as 96.5%; the “residual rate … for 3 months” value amounted to 89.7%; the “residual rate (content) immediately” value is 95.8%. Further, in data set [2], the “content after 24 hours” value was 96.4% and the “content after 48 hours” value was found to be 96.2%.

`CC(=O)N[C@@H](CS)C(=O)O` [N-acetyl cysteine]: in data set [2], the “content after 24 hours” value is on record as 98.3% and the “content after 48 hours” value is given as 97.5%.

Turning to `NC(=O)c1cccnc1` [Nicotinamide], in data set [1], the “residual rate … for 1 month” value was determined as 101.5%; the “residual rate … for 3 months” value is 99.6%; the “residual rate (content) immediately” value came out at 100.9%. In data set [2], the “content after 24 hours” value amounted to 96.6% and the “content after 48 hours” value is reported as 97.2%.

As to `CC(C)(CO)[C@@H](O)C(=O)NCCCO` [Panthenol], in data set [1], the “residual rate … for 1 month” value came to 97.6%; the “residual rate … for 3 months” value is given as 96.8%; the “residual rate (content) immediately” value is 97.8%. In addition, in data set [2], the “content after 24 hours” value is recorded as 100.0% and the “content after 48 hours” value is on record as 100.2%.

On to `Cc1ncc(C[n+]2csc(CCO)c2C)c(N)n1` [Vitamin B1, Thiamine hydrochloride], for which, in data set [1], the “residual rate … for 1 month” value came out at 90.6%; the “residual rate … for 3 months” value turned out to be 83.5%; the “residual rate (content) immediately” value amounted to 93.3%. Moreover, in data set [2], the “content after 24 hours” value came to 99.4% and the “content after 48 hours” value worked out at 94.1%.

Consider `Cc1cc2nc3c(=O)[nH]c(=O)nc-3n(C[C@H](O)[C@H](O)[C@H](O)COP(=O)([O-])O)c2cc1C.[Na+]` [Vitamin B2, Riboflavin sodium phosphate], for which, in data set [1], the “residual rate … for 1 month” value is given as 94.3%; the “residual rate … for 3 months” value is 92.6%; the “residual rate (content) immediately” value was found to be 94.7%. Moreover, the “content after 48 hours” value in data set [2] is given as 99.8%.

Take `Cc1ncc(CO)c(CO)c1O.Cl` [Vitamin B6, Pyridoxine hydrochloride]: in data set [1], the “residual rate … for 1 month” value is on record as 96.7%; the “residual rate … for 3 months” value is 97.3%; the “residual rate (content) immediately” value worked out at 97.1%. For the same compound, in data set [2], the “content after 24 hours” value is 100.6% and the “content after 48 hours” value is recorded as 99.9%.

Turning to `O=C1O[C@H]([C@@H](O)CO)C(O)=C1O` [Vitamin C, Ascorbic acid], in data set [1], the “residual rate … for 1 month” value turned out to be 97.6%; the “residual rate … for 3 months” value was determined as 99.7%; the “residual rate (content) immediately” value came out at 96.1%. For the same compound, in data set [2], the “content after 24 hours” value turned out to be 97.1% and the “content after 48 hours” value is 92.2%.

For the compound Cyanocobalamin [Vitamin B12], in data set [1], the “residual rate … for 1 month” value is 89.7%; the “residual rate … for 3 months” value was determined as 91.2%; the “residual rate (content) immediately” value was found to be 86.3%. Moreover, in data set [2], the “content after 24 hours” value came out at 96.0% and the “content after 48 hours” value stood at 97.9%.
